Test system: Zm-SHC-1 (squalene-hopene cyclase, SEQ ID NO: 2)
Experiment: Activity determination of the recombinant cyclase from E. coli LU15568 (conversion of homofarnesylic acid into sclareolide, GC)
Assay type: biochemical, Zymomonas mobilis
Settings: E. coli LU15568 homogenate, pH 5.0, 37° C., 24 h, GC analysis
Experimental: Inoculated from a suitable 2 ml preculture, E. coli LU15568 was grown for 16 h at 37° C. in 20 ml LB-Amp/Spec/Cm ([…]), 0.1 mM IPTG, 0.5 g/l rhamnose in 100 ml Erlenmeyer flasks (with baffles), centrifuged at 5000*g/10 min and stored at 4° C. Protein extract was prepared by suspending the cell pellet in 15 ml disruption buffer (0.2 M Tris/HCl, 0.5 M EDTA, pH 8.0), 375 U benzonase (for example Novagen, 25 U/μL), 40 μL PMSF (100 mM, dissolved in i-PropOH), 0.8 g sucrose and approx. 0.5 mg of lysozyme. The reaction mixture was mixed and incubated on ice for 30 min. Thereafter, the mixture was frozen at −20° C.
After the reaction mixture had defrosted, it was made up to approx. 40 ml with distilled water and again incubated on ice for 30 min. […]
The conversion of homofarnesylic acid (1b) into sclareolide (3) can be determined with the following GC system:
• 0 min: 100° C. • 5° C./min to 200° C. • After 5 min: 30° C./min to 320° C. • thereafter constant • Duration of the method: 30 min Injector temperature: 280° C. Retention times (RT): • Homofarnesylic acid: peak 1 at 11.7 min, peak 2 at 12.1 min; • Sclareolide: approx. 13.5 min A calibration series, with the aid of which the concentration of unknown samples was determined, is established using authentic material (Sigma, catalog No.: 358002).

## CC(C)=CCC/C(C)=C/CC/C(C)=C/CC(=O)O [Homofarnesylic acid, (3E,7E)-4,8,12-trimethyltrideca-3,7,11-trienoic acid]
20 mM homofarnesylic acid (E,E 74.93%)
  conversion rate from the E,E isomer: 82.7%
20 mM homofarnesylic acid, sodium citrate buffer
  conversion rate in total: 74.5%

Source: patent US10954538B2, “Enzymatic cyclization of homofarnesylic acid” (BASF SE, priority 2016, dated 2021)
